Tested on: OVCAR-5 complex spheroids with HUVEC/MSC, viability, % test/control
Assay: Anticancer human tumor OVCAR-5 cell line growth inhibition [AhR];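 note: spheroids exposed to compounds for 7 days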;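 for viability, T/C: 100% = DMSO vehicle control wells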
Details: for IC50: curve of first compound; for viability, T/C: stronger effect = lower value
Excerpt: Multicellular complex tumor spheroid response to aryl hydrocarbon receptor antagonists in combination with a variety of drugs and investigational agents in selected tumor cell lines
The current study was undertaken to assess response to aryl hydrocarbon receptor antagonists in combination with standard-of-care drugs and investigational agents in solid tumor complex spheroid models. Complex spheroids include a stromal component modeled by human endothelial cells (HUVEC) and fibroblasts modeled by human mesenchymal stem cells (MSCs). The concentration ranges selected for each drug and investigational agent were based upon clinically achievable concentrations if the clinical Cmax of the agent was known.
Compounds. The drugs and investigational agents: BAY 2416964 (NSC825713), GNF351 (NSC835774), CH-223191 (NSC835775), CPI-455 (NSC825282), aza-TdCyd (NSC777586), decitabine (NSC127716), belinostat (NSC758774), entinostat (NSC756642), pevonedistat (NSC761192), tazemetostat (NSC777109), talazoparib (NSC765396), olaparib (NSC753686), selinexor (NSC780203), nedisertib (M3814, NSC802822), bortezomib (NSC756655), venetoclax (NSC766270), doxorubicin (NSC123127), elimusertib (BAY189344, NSC800525), ceralasertib (AZD6738, NSC777638), TAK-243 (NSC785004), alisertib (NSC759677), etoposide (NSC141540), topotecan (NSC609699), eribulin (NSC707389), gemcitabine (NSC613327), carboplatin (NSC241240), cisplatin (NSC119875), and SN-38 (NSC673596) were obtained from the National Cancer Institute (NCI) Developmental Therapeutics Program Chemical Repository (32). The FDA-approved anticancer drug set is available from the Developmental Therapeutics Program at https://dtp.cancer.gov/organization/dscb/obtaining/available plates.htm. […] The stock solutions were prepared in dimethyl sulfoxide (DMSO, Sigma-Aldrich, St. Louis, MO, cat. D2650), except for the platinum compounds which were prepared in saline (Quality Biological, Gaithersburg, MD, cat. 114-055-101), at 800-fold the tested concentration and stored at -70 degrees C prior to their use. All drugs and investigational agents were tested over a range starting from a high concentration at or near the clinical Cmax and decreasing in half-log increments. If the clinical Cmax for an agent had not been determined, the highest concentration tested was 10 microM (Table 1).
Cell Culture. All cells were maintained in an incubator at 37 degrees C and 5% CO2 with 95% humidity. The PDC lines were cultured according to standard operating procedures established by the NCI PDMR (https://pdmr.cancer.gov). Briefly, all PDCs were thawed and cultured in Matrigel-coated flasks prepared with a working solution of 1X Ham's F-12 nutrient mix, without supplementation (Invitrogen, Waltham, MA, cat. 11765054), 100 U/mL penicillin-streptomycin (Invitrogen, cat. 15140122), and 2.5% Matrigel (Corning Inc., Corning, NY, cat. 354248) for the first three passages. All PDCs were cultured in complete DMEM/F-12 media containing advanced DMEM/F-12 (Invitrogen, cat. 12634028), 4.9% defined fetal bovine serum, heat inactivated (HyClone Laboratories Inc., Logan, UT, cat. SH30070.03HI), 389 ng/mL hydrocortisone (Sigma-Aldrich, cat. H4001), 9.7 ng/mL human EGF recombinant protein (Invitrogen, cat. PHG0313), 23.4 microg/mL adenine (Sigma-Aldrich, cat. A2786), 97.3 U/mL penicillin-streptomycin (Invitrogen, cat. 15140122), 1.9 mM L-glutamine (Invitrogen, cat. 25030081), and 9.7 microM Y-27632 dihydrochloride (Tocris Bioscience, Bristol, United Kingdom, cat. 1254). The PDCs were cultured in complete DMEM/F12 media without 10 microM Y-27632 dihydrochloride for at least two passages prior to the screen. The established cell lines NCI-H1341 and […] were cultured in DMEM/F-12, HEPES (Invitrogen, cat. 11330032), 5% defined fetal bovine serum (HyClone Laboratories Inc., cat. SH30070.03), ITS premix universal culture supplement [insulin (5 microg/mL), transferrin (5 microg/mL), and selenious acid (5 ng/mL)] […]

[1] = second compound 0.1 µM, first compound 0.0316 µM
[2] = second compound 0.1 µM, first compound 0.1 µM
[3] = second compound 0.1 µM, first compound 0.316 µM
[4] = second compound 0.1 µM, first compound 1 µM
[5] = second compound 0.1 µM, first compound 3.16 µM
[6] = second compound 0.1 µM, first compound 10 µM
[7] = second compound 0.316 µM, first compound 0.0316 µM
[8] = second compound 0.316 µM, first compound 0.1 µM
[9] = second compound 0.316 µM, first compound 0.316 µM
[10] = second compound 0.316 µM, first compound 1 µM
[11] = second compound 0.316 µM, first compound 3.16 µM
[12] = second compound 0.316 µM, first compound 10 µM
[13] = second compound 1 µM, first compound 0.0316 µM
[14] = second compound 1 µM, first compound 0.1 µM
[15] = second compound 1 µM, first compound 0.316 µM
[16] = second compound 1 µM, first compound 1 µM
[17] = second compound 1 µM, first compound 3.16 µM
[18] = second compound 1 µM, first compound 10 µM
[19] = second compound 3.16 µM, first compound 0.0316 µM
[20] = second compound 3.16 µM, first compound 0.1 µM
[21] = second compound 3.16 µM, first compound 0.316 µM
[22] = second compound 3.16 µM, first compound 1 µM
[23] = second compound 3.16 µM, first compound 3.16 µM
[24] = second compound 3.16 µM, first compound 10 µM
[25] = second compound 10 µM, first compound 0.0316 µM
[26] = second compound 10 µM, first compound 0.1 µM
[27] = second compound 10 µM, first compound 0.316 µM
[28] = second compound 10 µM, first compound 1 µM
[29] = second compound 10 µM, first compound 3.16 µM
[30] = second compound 10 µM, first compound 10 µM

SMILES | IC50 (second compound 0.1 µM) | IC50 (second compound 0.316 µM) | IC50 (second compound 1 µM) | IC50 (second compound 3.16 µM) | IC50 (second compound 10 µM) | viability, T/C [1] | viability, T/C [2] | viability, T/C [3] | viability, T/C [4] | viability, T/C [5] | viability, T/C [6] | viability, T/C [7] | viability, T/C [8] | viability, T/C [9] | viability, T/C [10] | viability, T/C [11] | viability, T/C [12] | viability, T/C [13] | viability, T/C [14] | viability, T/C [15] | further results
Nc1ccccc1NC(=O)c1ccc(CNC(=O)OCc2cccnc2)cc1 + CC(CO)NC(=O)c1cc(-c2ccc(Cl)cc2)nn(-c2cnn(C)c2)c1=O | 481 nM | 514 nM | 512 nM | 444 nM | 397 nM | 92% | 80.7% | 59.7% | 32.3% | 19.5% | 7.46% | 95.9% | 86.6% | 63.2% | 31% | 18.3% | 7.56% | 95.2% | 85.3% | 63.6% | viability, T/C [16]: 30.9%; viability, T/C [17]: 17.4%; viability, T/C [18]: 7.87%; viability, T/C [19]: 85.9%; viability, T/C [20]: 77.8%; viability, T/C [21]: 59.7%; viability, T/C [22]: 27.9%; viability, T/C [23]: 14.6%; viability, T/C [24]: 6.5%; viability, T/C [25]: 83.9%; viability, T/C [26]: 81.3%; viability, T/C [27]: 55.1%; viability, T/C [28]: 24.6%; viability, T/C [29]: 12.8%; viability, T/C [30]: 4.72%
O=C(c1cc(Cc2n[nH]c(=O)c3ccccc23)ccc1F)N1CCN(C(=O)C2CC2)CC1 + CC(CO)NC(=O)c1cc(-c2ccc(Cl)cc2)nn(-c2cnn(C)c2)c1=O | > 10000 nM | > 10000 nM | > 10000 nM | > 10000 nM | > 10000 nM | 112% | 106% | 107% | 102% | 102% | 98.3% | 111% | 112% | 108% | 107% | 106% | 102% | 109% | 114% | 115% | viability, T/C [16]: 112%; viability, T/C [17]: 113%; viability, T/C [18]: 107%; viability, T/C [19]: 104%; viability, T/C [20]: 104%; viability, T/C [21]: 102%; viability, T/C [22]: 101%; viability, T/C [23]: 97.5%; viability, T/C [24]: 94.8%; viability, T/C [25]: 99.4%; viability, T/C [26]: 101%; viability, T/C [27]: 96.6%; viability, T/C [28]: 99.4%; viability, T/C [29]: 94.4%; viability, T/C [30]: 90.7%

— PubChem BioAssay AID1919015 (Molecular Pharmacology Branch, DTP, NCI, 2023)
